Experimental data published in US20080009418A1, “Selective Inhibitors” (Alchemia LTD., priority 2004, published 2008).

Assays:
[1] = biological target: T1, Mouse urotensin (mUR2) (Mus musculus, UniProt Q8VIH9); experiment: Radioligand binding, mouse urotensin mUR2 membranes, FlashPlate, [125I]-Urotensin II; settings: compound at 10 μM; for A11: inhibition of radioligand binding / A11 radioligand binding, percentage inhibition: [125I]-Urotensin II; for A11: inhibition of radioligand binding: FlashPlate
T1 construct: purchased Perkin Elmer Biosignal
T1 sequence (Q8VIH9 1-385): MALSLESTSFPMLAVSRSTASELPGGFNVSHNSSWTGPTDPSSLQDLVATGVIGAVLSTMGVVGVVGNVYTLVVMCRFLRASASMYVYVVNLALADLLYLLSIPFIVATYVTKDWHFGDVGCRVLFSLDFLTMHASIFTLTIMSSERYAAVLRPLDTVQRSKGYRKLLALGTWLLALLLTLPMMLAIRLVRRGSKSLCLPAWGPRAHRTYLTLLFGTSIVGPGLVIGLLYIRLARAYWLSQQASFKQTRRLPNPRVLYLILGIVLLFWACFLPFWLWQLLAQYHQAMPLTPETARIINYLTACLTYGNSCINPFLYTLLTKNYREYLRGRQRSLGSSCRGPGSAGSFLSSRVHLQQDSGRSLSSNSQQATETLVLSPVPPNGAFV
How it was run: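 Cloned mouse urotensin (mUR2) receptor membranes from Perkin Elmer Biosignal were immobilized in FlashPlate microplates using a proprietary coating. Each well got 19.5 μl buffer, then 0.5 μl of DMSO, reference ligand, or compound. Adding 5 μl of [125I]-Urotensin II, diluted to 5× final concentration in binding buffer, started binding. Plates were sealed with TopSeal-A and incubated 1 hour at room temperature in the dark. Wells were counted for 30 seconds each on a TopCount after a 60-second delay, and percentage inhibition was calculated.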

[2] = biological target: T2, Human κ-Opioid (KOP) (Homo sapiens, UniProt P41145); experiment: Radioligand binding, human κ-opioid (KOP) membranes, filtration, [3H]-Diprenorphine; settings: compound at 10 μM; for A2: inhibition of radioligand binding / A2 radioligand binding, percentage inhibition: [3H]-Diprenorphine; for A2: inhibition of radioligand binding: filtration
T2 construct: purchased Perkin Elmer Biosignal
T2 sequence (P41145 whole entry): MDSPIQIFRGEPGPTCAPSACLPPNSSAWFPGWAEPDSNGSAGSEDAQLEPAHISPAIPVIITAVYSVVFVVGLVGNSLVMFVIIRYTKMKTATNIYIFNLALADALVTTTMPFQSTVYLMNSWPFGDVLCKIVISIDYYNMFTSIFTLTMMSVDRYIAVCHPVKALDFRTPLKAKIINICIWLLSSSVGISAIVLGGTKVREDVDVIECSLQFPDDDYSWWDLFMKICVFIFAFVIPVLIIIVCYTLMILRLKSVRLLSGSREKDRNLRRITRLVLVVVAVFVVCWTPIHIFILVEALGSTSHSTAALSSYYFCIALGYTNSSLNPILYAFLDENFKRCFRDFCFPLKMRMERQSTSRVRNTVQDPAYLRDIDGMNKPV
How it was run: (§1)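 Membranes from cloned human receptors were incubated with compound and radioligand for 1 hour at room temperature. Bound ligand was collected on 0.3% PEI-soaked filters, washed with cold 50 mM Tris-HCl pH 7.4, and counted by scintillation. Percent inhibition was computed against DMSO totals and reference-ligand nonspecific wells.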

[3] = biological target: T3, Human Melanocortin (MC4) (Homo sapiens, UniProt P32245); experiment: Radioligand binding, human melanocortin MC4 membranes, FlashPlate, [125I]-NDP-αMSH; settings: compound at 10 μM; for A4: inhibition of radioligand binding / A4 radioligand binding, percentage inhibition: [125I]-NDP-αMSH; for A4: inhibition of radioligand binding: FlashPlate
T3 construct: purchased Perkin Elmer Biosignal
T3 sequence (P32245 whole entry): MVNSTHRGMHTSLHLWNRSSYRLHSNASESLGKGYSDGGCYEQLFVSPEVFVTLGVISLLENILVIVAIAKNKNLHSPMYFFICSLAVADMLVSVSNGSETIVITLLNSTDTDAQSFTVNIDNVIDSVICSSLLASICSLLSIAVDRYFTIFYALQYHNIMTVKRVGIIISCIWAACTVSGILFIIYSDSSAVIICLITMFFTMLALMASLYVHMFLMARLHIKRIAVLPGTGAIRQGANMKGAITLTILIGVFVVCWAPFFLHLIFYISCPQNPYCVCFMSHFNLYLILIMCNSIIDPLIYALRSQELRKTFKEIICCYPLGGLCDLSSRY
How it was run: (§2)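 Cloned human receptor membranes were coated onto FlashPlate wells and incubated with radioligand and compound (added from a 0.5 mM DMSO daughter plate) for 1 hour at room temperature in the dark. Scintillation counting gave percent inhibition, with DMSO defining total and reference ligand defining non-specific binding.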

[4] = biological target: T4, Human melanin-concentrating hormone (MCH1) (Homo sapiens, UniProt Q99705); experiment: Radioligand binding, human melanin-concentrating hormone MCH1 membranes, FlashPlate, [125I]-S36057; settings: compound at 10 μM; for A6: inhibition of radioligand binding: [125I]-S36057, FlashPlate; for A6 radioligand binding, percentage inhibition: [125I]-S36057
T4 construct: purchased Perkin Elmer Biosignal
T4 sequence (Q99705 whole entry): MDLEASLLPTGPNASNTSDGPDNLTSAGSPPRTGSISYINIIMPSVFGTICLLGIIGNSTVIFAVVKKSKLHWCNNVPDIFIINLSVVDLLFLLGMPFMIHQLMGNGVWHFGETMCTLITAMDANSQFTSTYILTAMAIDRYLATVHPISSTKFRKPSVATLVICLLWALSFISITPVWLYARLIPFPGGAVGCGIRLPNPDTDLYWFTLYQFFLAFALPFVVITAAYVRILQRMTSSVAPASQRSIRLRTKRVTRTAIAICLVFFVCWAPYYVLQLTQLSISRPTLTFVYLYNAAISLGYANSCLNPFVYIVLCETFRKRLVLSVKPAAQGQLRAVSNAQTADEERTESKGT
How it was run: as §2

[5] = biological target: T5, Human μ-opioid (MOP) (Homo sapiens, UniProt P35372); experiment: Radioligand binding, human μ-opioid (MOP) membranes, FlashPlate, [3H]-Naloxone; settings: compound at 10 μM; for A7: inhibition of radioligand binding / A7 radioligand binding, percentage inhibition: [3H]-Naloxone; for A7: inhibition of radioligand binding: FlashPlate
T5 construct: purchased Perkin Elmer Biosignal
T5 sequence (P35372 whole entry): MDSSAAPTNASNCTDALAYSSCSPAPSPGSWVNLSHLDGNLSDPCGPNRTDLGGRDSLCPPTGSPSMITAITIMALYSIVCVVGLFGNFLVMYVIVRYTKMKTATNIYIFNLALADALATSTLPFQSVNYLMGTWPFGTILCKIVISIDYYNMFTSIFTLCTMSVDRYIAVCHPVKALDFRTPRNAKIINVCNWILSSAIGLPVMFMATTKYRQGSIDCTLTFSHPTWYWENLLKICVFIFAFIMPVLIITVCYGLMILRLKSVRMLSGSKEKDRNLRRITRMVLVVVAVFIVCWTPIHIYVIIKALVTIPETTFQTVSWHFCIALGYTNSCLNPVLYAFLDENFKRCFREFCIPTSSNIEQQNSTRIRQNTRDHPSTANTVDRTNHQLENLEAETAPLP
How it was run: as §2

[6] = biological target: T6, Human melanocortin (MC5) (Homo sapiens, UniProt P33032); experiment: Radioligand binding, human melanocortin MC5 membranes, FlashPlate, [125I]-NDP-αMSH; settings: compound at 10 μM; for A5: inhibition of radioligand binding / A5 radioligand binding, percentage inhibition: [125I]-NDP-αMSH; for A5: inhibition of radioligand binding: FlashPlate
T6 construct: purchased Perkin Elmer Biosignal
T6 sequence (P33032 whole entry): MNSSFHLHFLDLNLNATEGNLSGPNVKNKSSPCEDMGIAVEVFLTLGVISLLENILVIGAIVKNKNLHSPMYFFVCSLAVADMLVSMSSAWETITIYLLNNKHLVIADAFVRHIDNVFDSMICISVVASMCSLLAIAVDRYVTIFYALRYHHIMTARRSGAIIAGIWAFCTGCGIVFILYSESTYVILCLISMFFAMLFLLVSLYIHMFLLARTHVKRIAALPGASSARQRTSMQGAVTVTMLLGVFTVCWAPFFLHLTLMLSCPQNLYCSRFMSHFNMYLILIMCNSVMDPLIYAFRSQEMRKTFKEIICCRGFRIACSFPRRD
How it was run: as §2

[7] = biological target: T7, Human neurokinin (NK1) (Homo sapiens, UniProt P25103); experiment: Radioligand binding, human neurokinin NK1 membranes, filtration, [125I]-Substance P; settings: compound at 10 μM; for A8: inhibition of radioligand binding / A8 radioligand binding, percentage inhibition: [125I]-Substance P; for A8: inhibition of radioligand binding: filtration
T7 construct: purchased Perkin Elmer Biosignal
T7 sequence (P25103 whole entry): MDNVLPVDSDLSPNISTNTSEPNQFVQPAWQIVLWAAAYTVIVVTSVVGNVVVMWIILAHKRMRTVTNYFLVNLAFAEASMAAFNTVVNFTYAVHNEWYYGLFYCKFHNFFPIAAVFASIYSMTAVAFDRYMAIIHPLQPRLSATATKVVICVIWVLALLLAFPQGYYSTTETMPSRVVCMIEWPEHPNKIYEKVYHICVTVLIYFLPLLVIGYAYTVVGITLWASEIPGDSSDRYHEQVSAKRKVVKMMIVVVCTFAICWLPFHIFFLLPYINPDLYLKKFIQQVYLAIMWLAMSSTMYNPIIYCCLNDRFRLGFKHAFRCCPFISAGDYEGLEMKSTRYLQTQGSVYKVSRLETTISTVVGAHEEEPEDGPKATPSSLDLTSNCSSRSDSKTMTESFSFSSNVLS
How it was run: as §1

[8] = biological target: T8, Human neuropeptide Y (NPY-Y1) (Homo sapiens, UniProt P25929); experiment: Radioligand binding, human neuropeptide Y NPY-Y1 membranes, FlashPlate, [125I]-PYY; settings: compound at 10 μM; for A9: inhibition of radioligand binding / A9 radioligand binding, percentage inhibition: [125I]-PYY; for A9: inhibition of radioligand binding: FlashPlate
T8 construct: purchased Perkin Elmer Biosignal
T8 sequence (P25929 1-384): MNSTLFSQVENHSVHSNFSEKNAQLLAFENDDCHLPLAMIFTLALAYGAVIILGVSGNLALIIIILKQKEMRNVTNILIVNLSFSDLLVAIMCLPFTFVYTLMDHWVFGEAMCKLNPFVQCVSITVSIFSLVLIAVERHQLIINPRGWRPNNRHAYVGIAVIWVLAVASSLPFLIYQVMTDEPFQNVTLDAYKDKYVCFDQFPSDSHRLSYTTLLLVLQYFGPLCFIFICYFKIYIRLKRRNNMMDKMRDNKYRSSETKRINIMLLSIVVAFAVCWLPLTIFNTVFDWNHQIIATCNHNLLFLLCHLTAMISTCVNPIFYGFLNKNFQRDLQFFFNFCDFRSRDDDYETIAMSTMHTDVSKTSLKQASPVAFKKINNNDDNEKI
How it was run: as §2

[9] = biological target: T9, Human Melanocortin (MC3) (Homo sapiens, UniProt P41968); experiment: Radioligand binding, human melanocortin MC3 membranes, FlashPlate, [125I]-NDP-αMSH; settings: compound at 10 μM; for A3: inhibition of radioligand binding / A3 radioligand binding, percentage inhibition: [125I]-NDP-αMSH; for A3: inhibition of radioligand binding: FlashPlate
T9 construct: purchased Perkin Elmer Biosignal
T9 sequence (P41968 whole entry): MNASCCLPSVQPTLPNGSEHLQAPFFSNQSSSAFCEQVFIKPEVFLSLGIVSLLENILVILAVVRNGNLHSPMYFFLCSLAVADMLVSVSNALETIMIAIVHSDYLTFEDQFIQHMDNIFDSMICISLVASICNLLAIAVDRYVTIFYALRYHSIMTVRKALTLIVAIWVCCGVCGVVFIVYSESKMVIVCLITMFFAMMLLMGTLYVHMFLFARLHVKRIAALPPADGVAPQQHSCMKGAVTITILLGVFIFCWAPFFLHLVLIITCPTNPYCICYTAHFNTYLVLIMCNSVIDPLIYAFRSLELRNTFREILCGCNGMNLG
How it was run: as §2

[10] = biological target: T10, Human opioid (ORL1) (Homo sapiens, UniProt P41146); experiment: Radioligand binding, human opioid ORL1 membranes, FlashPlate, [125I]-Nociceptin; settings: compound at 10 μM; for A10: inhibition of radioligand binding / A10 radioligand binding, percentage inhibition: [125I]-Nociceptin; for A10: inhibition of radioligand binding: FlashPlate
T10 construct: purchased Perkin Elmer Biosignal
T10 sequence (P41146 whole entry): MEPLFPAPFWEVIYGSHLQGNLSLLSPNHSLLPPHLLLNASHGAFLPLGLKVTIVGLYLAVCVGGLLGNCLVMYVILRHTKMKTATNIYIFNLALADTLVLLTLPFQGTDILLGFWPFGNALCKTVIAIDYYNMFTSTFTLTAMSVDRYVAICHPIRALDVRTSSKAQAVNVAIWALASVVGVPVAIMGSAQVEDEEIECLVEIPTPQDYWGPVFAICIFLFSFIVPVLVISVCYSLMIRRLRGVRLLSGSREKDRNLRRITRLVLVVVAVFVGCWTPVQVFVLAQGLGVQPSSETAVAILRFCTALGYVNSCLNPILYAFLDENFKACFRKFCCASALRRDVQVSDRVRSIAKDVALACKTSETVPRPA
How it was run: as §2

[11] = biological target: T11, Human δ-opioid (DOP) (Homo sapiens, UniProt P41143); experiment: Radioligand binding, human δ-opioid (DOP) membranes, FlashPlate, [3H]-Bremazocine; settings: compound at 10 μM; for A1: inhibition of radioligand binding / A1 radioligand binding, percentage inhibition: [3H]-Bremazocine; for A1: inhibition of radioligand binding: FlashPlate
T11 construct: purchased Perkin Elmer Biosignal
T11 sequence (P41143 whole entry): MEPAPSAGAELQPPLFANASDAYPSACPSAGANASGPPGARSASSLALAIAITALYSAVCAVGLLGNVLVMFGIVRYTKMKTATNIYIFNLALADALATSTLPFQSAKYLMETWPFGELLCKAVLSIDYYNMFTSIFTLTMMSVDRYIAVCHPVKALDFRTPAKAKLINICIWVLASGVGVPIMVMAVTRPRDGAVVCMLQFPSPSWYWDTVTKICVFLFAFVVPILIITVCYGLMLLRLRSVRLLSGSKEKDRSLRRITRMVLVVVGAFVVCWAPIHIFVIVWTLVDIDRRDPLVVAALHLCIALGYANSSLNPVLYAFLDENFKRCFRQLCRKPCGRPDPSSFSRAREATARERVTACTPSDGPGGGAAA
How it was run: as §2

| SMILES | A11: inhibition of radioligand binding [1] | A2: inhibition of radioligand binding [2] | A4: inhibition of radioligand binding [3] | A6: inhibition of radioligand binding [4] | A7: inhibition of radioligand binding [5] | A5: inhibition of radioligand binding [6] | A8: inhibition of radioligand binding [7] | A9: inhibition of radioligand binding [8] | A3: inhibition of radioligand binding [9] | A10: inhibition of radioligand binding [10] | A1: inhibition of radioligand binding [11] | A11 radioligand binding, percentage inhibition [1] | A2 radioligand binding, percentage inhibition [2] | A4 radioligand binding, percentage inhibition [3] | A6 radioligand binding, percentage inhibition [4] | A7 radioligand binding, percentage inhibition [5] | A5 radioligand binding, percentage inhibition [6] | A8 radioligand binding, percentage inhibition [7] | A9 radioligand binding, percentage inhibition [8] | A3 radioligand binding, percentage inhibition [9] | further results |
| --- | --- | --- | --- | --- | --- | --- | --- | --- | --- | --- | --- | --- | --- | --- | --- | --- | --- | --- | --- | --- | --- |
| COCC1OC(OCc2ccc(Cl)cc2)C(NC(=O)CNC(=N)N)C(OCc2ccc3ccccc3c2)C1O (stereo not shown) [compound 209] | − (“−” indicates less than 50% inhibition at 10 μM) | − (“−” indicates less than 50% inhibition at 10 μM) | + (“+” indicates greater than 50% inhibition at 10 μM) | − (“−” indicates less than 50% inhibition at 10 μM) | − (“−” indicates less than 50% inhibition at 10 μM) | + (“+” indicates greater than 50% inhibition at 10 μM) | + (“+” indicates greater than 50% inhibition at 10 μM) | − (“−” indicates less than 50% inhibition at 10 μM) | + (“+” indicates greater than 50% inhibition at 10 μM) | − (“−” indicates less than 50% inhibition at 10 μM) | − (“−” indicates less than 50% inhibition at 10 μM) |  |  |  |  |  |  |  |  |  |  |
| COC[C@H]1OC(OCCc2ccccc2)[C@H](NC(=O)CCCNC(=N)N)[C@@H](OCc2ccc(-c3ccccc3)cc2)[C@@H]1O (stereo partly shown) [compound 43] |  |  |  |  |  |  |  |  |  |  |  |  |  |  |  |  |  |  |  |  | A11 radioligand binding inhibition ([1]; mouse urotensin mUR2 membranes): − (“−” indicates less than 50% inhibition at 10 μM); A2 radioligand binding inhibition ([2]; human κ-opioid (KOP) membranes): + (“+” indicates greater than 50% inhibition at 10 μM); A4 radioligand binding inhibition ([3]; human melanocortin MC4 membranes): + (“+” indicates greater than 50% inhibition at 10 μM); A6 radioligand binding inhibition ([4]; human MCH1 membranes): + (“+” indicates greater than 50% inhibition at 10 μM); A7 radioligand binding inhibition ([5]; human μ-opioid (MOP) membranes): + (“+” indicates greater than 50% inhibition at 10 μM); A5 radioligand binding inhibition ([6]; human melanocortin MC5 membranes): + (“+” indicates greater than 50% inhibition at 10 μM); A8 radioligand binding inhibition ([7]; human neurokinin NK1 membranes): + (“+” indicates greater than 50% inhibition at 10 μM); A9 radioligand binding inhibition ([8]; human NPY-Y1 membranes): − (“−” indicates less than 50% inhibition at 10 μM); A3 radioligand binding inhibition ([9]; human melanocortin MC3 membranes): + (“+” indicates greater than 50% inhibition at 10 μM); A10 radioligand binding inhibition ([10]; human ORL1 membranes): − (“−” indicates less than 50% inhibition at 10 μM); A1 radioligand binding inhibition ([11]; human δ-opioid (DOP) membranes): − (“−” indicates less than 50% inhibition at 10 μM) |
| CO[C@H]1[C@H](O)[C@@H](COCc2cccc(O)c2)OC(OCc2ccccc2)[C@@H]1NC(=O)CCCN (stereo partly shown) [compound 153] |  |  |  |  |  |  |  |  |  |  |  | − (“−” indicates less than 50% inhibition at 10 μM) | − (“−” indicates less than 50% inhibition at 10 μM) | − (“−” indicates less than 50% inhibition at 10 μM) | − (“−” indicates less than 50% inhibition at 10 μM) | − (“−” indicates less than 50% inhibition at 10 μM) | − (“−” indicates less than 50% inhibition at 10 μM) | + (“+” indicates greater than 50% inhibition at 10 μM) | − (“−” indicates less than 50% inhibition at 10 μM) | − (“−” indicates less than 50% inhibition at 10 μM) | A10 radioligand binding, percentage inhibition [10]: − (“−” indicates less than 50% inhibition at 10 μM); A1 radioligand binding, percentage inhibition [11]: − (“−” indicates less than 50% inhibition at 10 μM) |
| CO[C@H]1[C@H](O)[C@@H](COCc2cccc(O)c2)OC(OCc2ccc(-c3ccccc3)cc2)[C@@H]1NC(=O)CCCN (stereo partly shown) [compound 148] |  |  |  |  |  |  |  |  |  |  |  | − (“−” indicates less than 50% inhibition at 10 μM) | − (“−” indicates less than 50% inhibition at 10 μM) | − (“−” indicates less than 50% inhibition at 10 μM) | − (“−” indicates less than 50% inhibition at 10 μM) | − (“−” indicates less than 50% inhibition at 10 μM) | − (“−” indicates less than 50% inhibition at 10 μM) | + (“+” indicates greater than 50% inhibition at 10 μM) | − (“−” indicates less than 50% inhibition at 10 μM) | − (“−” indicates less than 50% inhibition at 10 μM) | A10 radioligand binding, percentage inhibition [10]: − (“−” indicates less than 50% inhibition at 10 μM); A1 radioligand binding, percentage inhibition [11]: − (“−” indicates less than 50% inhibition at 10 μM) |
| COCC1OC(OCc2ccc(Cl)cc2)C(NC(=O)CCNC(=N)N)C(OCc2ccc(-c3ccccc3)cc2)C1O (stereo not shown) [compound 206] | − (“−” indicates less than 50% inhibition at 10 μM) | − (“−” indicates less than 50% inhibition at 10 μM) | + (“+” indicates greater than 50% inhibition at 10 μM) | + (“+” indicates greater than 50% inhibition at 10 μM) | − (“−” indicates less than 50% inhibition at 10 μM) | + (“+” indicates greater than 50% inhibition at 10 μM) | + (“+” indicates greater than 50% inhibition at 10 μM) | − (“−” indicates less than 50% inhibition at 10 μM) | − (“−” indicates less than 50% inhibition at 10 μM) | − (“−” indicates less than 50% inhibition at 10 μM) | − (“−” indicates less than 50% inhibition at 10 μM) |  |  |  |  |  |  |  |  |  |  |
